Measurements: patent US20260193254A1, “2-OXOQUINAZOLINE CRYSTALLINE FORMS” (IDEAYA Biosciences, Inc., priority 2022, published 2026)
≈ marks a conversion by molar mass, not a printed value.

Columns and labels:
[1] = target: T1, MAT2A enzyme (Homo sapiens, UniProt P31153); experiment: Phosphate Sensor Fluorescence Assay; format: biochemical; conditions: inhibition of MAT2A enzyme
T1 construct: Human MAT2A: Cepter, amino acids 1-395; purchased Cepter clone ID 329, lot 00023-123; clone ID 334, lot 00023-148
Protocol: The ability of the compound of Formula (I) described in Example 1 to inhibit MAT2A enzyme was determined using a Phosphate Sensor Fluorescence Assay described below.
MAT2A enzyme is incubated with a test compound in DMSO or DMSO and its substrates (L-methionine and ATP) in a microtiter plate. The enzymatic reaction is stopped by the addition of Working Phosphate Sensor Mixture. The plate is analyzed for fluorescence at 450 nm. The high control (DMSO with enzyme and its substrates) gives high fluorescence which represents no inhibition of enzymatic activity while the low control (DMSO with MAT2A substrates and no enzyme) gives low fluorescence which represents full inhibition of enzymatic activity. […]
For the assay, a mixture of 1 mM L-methionine/1 mM ATP (2× final pre-stopped concentration) in assay buffer; MAT2A (2× final pre-stopped concentration) in Assay Buffer and Working Phosphate Sensor Mixture (1.5 μM Phosphate Sensor/30 mM EDTA in Assay Buffer, which is 3× final concentrations) were prepared. […] The plate was read for fluorescence at 450 nm after exciting at 430 nm.
Percent inhibition was calculated in Chemical and Biological Information System (CBIS), (ChemInnovation Software Inc.). […]

[2] = Bulk stability of crystalline forms; format: physicochemical; set-up: key: Color A: All No change of color; conditions: Solid state
Excerpt: (§1) Solids obtained after bulk stability study were characterized by XRPD and HPLC.

[3] = Bulk stability of crystalline forms; format: physicochemical; conditions: for Purity, Bulk (HPLC): Solid state
Excerpt: as §1

[4] = Bulk stability of crystalline forms; format: physicochemical; set-up: key: Color A: All No change of color; Color B: Slightly discoloration; conditions: Solid state, 60° C., tight container, 2 weeks
Excerpt: as §1

[5] = Intrinsic dissolution rate (IDR) evaluation in FaSSIF; format: physicochemical; conditions: FaSSIF at 37° C.
Protocol: Only one surface of the pellet was exposed (surface area=0.50 cm^2) to 900 mL FaSSIF, the dissolution medium. Temperature of chamber medium was set as 37±0.5° C. Shaft rotation as 100 rpm and sampling time points as 2 min, 5 min, 10 min, 15 min, 20 min, 25 min, 30 min, 35 min, 40 min, 50 min, 60 min, and 120 min. 2 mL sample solution was withdrawn at each time point and centrifuged at 14,000 rpm for 5 min to isolate supernatant. Then concentration of the supernatant was analyzed by HPLC. After 120 min, XRPD of disc surface was measured.

[6] = Behavior under compression; format: physicochemical; conditions: 2 Mpa/2 min, hydraulic press
Protocol: XRPD characterization was performed to investigate polymorphic behavior under compression.

[7] = Equilibrium solubility in FeSSIF and FaSSIF; format: physicochemical; conditions: 24 hours; for Solubility: target concentration 1 mg/mL, HPLC method 1 or 2 (footnote)
Protocol: Solid part and liquid part were separated by filtration. Solubility was measured by HPLC. Solid part (wet cake) was investigated by XRPD.

[8] = 25° C./92% RH, open container, 1 week
[9] = 25° C./92% RH, open container, 2 weeks
[10] = 25° C./92% RH, open container, 4 weeks
[11] = 40° C./75% RH, open container, 1 week
[12] = 40° C./75% RH, open container, 2 weeks
[13] = 40° C./75% RH, open container, 4 weeks
[14] = 60° C., tight container, 1 week
[15] = 60° C., tight container, 4 weeks

T1 sequence (P31153 whole entry, the tested form may be a part): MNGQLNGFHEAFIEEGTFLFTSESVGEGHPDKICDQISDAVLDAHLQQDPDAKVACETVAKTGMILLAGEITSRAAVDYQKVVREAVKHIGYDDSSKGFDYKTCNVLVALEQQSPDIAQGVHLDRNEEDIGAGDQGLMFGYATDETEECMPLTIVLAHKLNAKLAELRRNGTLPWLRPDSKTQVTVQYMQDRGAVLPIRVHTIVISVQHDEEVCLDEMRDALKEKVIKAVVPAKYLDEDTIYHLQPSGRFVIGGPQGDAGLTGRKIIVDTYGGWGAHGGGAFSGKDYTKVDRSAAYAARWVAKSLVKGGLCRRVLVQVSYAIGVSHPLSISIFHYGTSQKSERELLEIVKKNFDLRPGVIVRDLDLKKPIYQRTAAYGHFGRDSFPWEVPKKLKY

Nc1nc(=O)n(-c2ccccc2Cl)c2nc(C(F)(F)F)ccc12 [Formula (I), 4-Amino-1-(2-chlorophenyl)-7-(trifluoromethyl)pyrido[2,3-d]pyrimidin-2(1H)-one]
IC50 [1]: < 0.2 µM

Nc1nc(=O)n(-c2ccccc2Cl)c2nc(C(F)(F)F)ccc12 [substantially amorphous form, 4-Amino-1-(2-chlorophenyl)-7-(trifluoromethyl)pyrido[2,3-d]pyrimidin-2(1H)-one]
Color [2, 8]: A
Color [2, 9]: A
Color [2, 10]: A
Color [2, 11]: A
Color [2, 12]: A
Color [2, 13]: A
Color [2, 14]: A
Color [2, 15]: A
Purity, Bulk (HPLC) [3, 8]: 98.5%
Purity, Bulk (HPLC) [3, 9]: 98.1%
Purity, Bulk (HPLC) [3, 10]: 97.2%
Purity, Bulk (HPLC) [3, 11]: 97.5%
Purity, Bulk (HPLC) [3, 12]: 96.1%
Purity, Bulk (HPLC) [3, 13]: 93.5%
Purity, Bulk (HPLC) [3, 14]: 98.4%
Purity, Bulk (HPLC) ([3]; 60° C., tight container, 2 weeks): 97.8%
Purity, Bulk (HPLC) [3, 15]: 97.8%
degradation (bulk stability) ([3]; after exposure to 40° C./75 RH in an open container and 60° C. in a tight container): slight degradation
Initial purity ([3]; before stress, HPLC): 98.7%
chemical stability and physical stability (bulk stability) ([3]; stressed under 25° C./92 RH, 40% C/75% RH and 60° C., XRPD and HPLC): physically stable
Color [4]: B
XRPD after IDR ([5]; disc surface after 120 min): No form change
Concentration detected during IDR test (Comments) ([5]; for Form V and Form A remains same during the whole process, LOQ for Form T and amorphous form): <LOQ (0.0008 mg/mL
XRPD after compression [6]: No form change
final pH ([7]; FaSSIF, pH 6.5, 37° C.): 6.5
Solubility ([7]; FaSSIF, pH 6.5, 37° C.): 120 µg/mL (≈ 352 µM)
final pH ([7]; FeSSIF, pH 5.0, 37° C.): 5.0
Solubility ([7]; FeSSIF, pH 5.0, 37° C.): 230 µg/mL (≈ 675 µM)
